# In patent US10351530B2, “Arylcyclohexyl pyrazoles as NRF2 regulators” (GlaxoSmithKline Intellectual Property Development Limited, priority 2015, dated 2019):
# Key:
# [1] = tested on: NQO1 specific enzyme activity in BEAS-2B cells; test: BEAS-2B NQO1 MTT Assay; type: cell-based; conditions: Homo sapiens, BEAS-2B, 48 h, NQO1 specific activity induction
# From the text: NAD(P)H:quinone oxidoreductase 1 (NQO1), also called DT diaphorase, is a homodimeric FAD-containing enzyme that catalyzes obligatory NAD(P)H-dependent two-electron reductions of quinones and protects cells against the toxic and neoplastic effects of free radicals and reactive oxygen species arising from one-electron reductions. The transcription of NQO1 is finely regulated by NRF2, and thus NQO1 activity is a good marker for NRF2 activation. On day one, frozen BEAS-2B cells (ATCC) are thawed in a water bath, counted, and re-suspended at a concentration of 250,000 cells/mL. Fifty microliters of cells are plated in 384 well black clear-bottomed plates. Plates are incubated at 37° C., 5% CO2 overnight. On day two, plates are centrifuged and 50 nL of compound or controls are added to the cells. Plates are then incubated at 37° C., 5% CO2 for 48 hours. On day four, medium is aspirated from the plate and crude cell lysates are made by adding 13 uL of 1× Cell Signaling Technologies lysis buffer with 1 Complete, Mini, EDTA-free Protease Inhibitor Tablet (Roche) for each 10 mL of lysis buffer. After lysis plates are incubated for 20 minutes at room temperature. Two microliters of lysate are removed for use in Cell Titer Glo assay (Promega) and MTT cocktail is prepared (Prochaska et. al. 1998) for measurement of NQO1 activity. Fifty microliters of MTT cocktail is added to each well, plate is centrifuged, and analyzed on an Envision plate reader (Perkin Elmer) using Absorbance 570 nm label for 30 minutes. Product formation is measured kinetically and the pEC50 of NQO1 specific activity induction is calculated by plotting the change in absorbance (Delta OD/min) versus the log of compound concentration followed by 3-parameter fitting.
# Keap1/NRF2 = target: T1, Keap1/NRF2 (Homo sapiens, UniProt Q14145); test: NRF2-Keap1 FP Assay (Kelch domain (321-609) of Keap1, TAMRA-labeled NRF2 ETGE peptide); type: binding; conditions: Keap1 (321-609) 20 nM, Tamra labeled peptide 8 nM
# T1 construct: Keap1 (321-609) is diluted to 40 nM (2×) in 1× assay buffer
# T1 sequence (Q14145 321-609): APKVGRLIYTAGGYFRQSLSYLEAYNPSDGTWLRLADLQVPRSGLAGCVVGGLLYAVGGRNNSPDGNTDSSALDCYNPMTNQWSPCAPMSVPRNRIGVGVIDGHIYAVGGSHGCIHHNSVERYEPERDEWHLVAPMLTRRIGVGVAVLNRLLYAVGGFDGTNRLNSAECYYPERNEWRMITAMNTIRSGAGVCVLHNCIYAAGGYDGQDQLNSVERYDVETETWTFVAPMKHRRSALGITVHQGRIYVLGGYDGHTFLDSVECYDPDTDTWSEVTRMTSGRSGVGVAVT
# From the text: One model for the NRF2-Keap1 interaction is through two binding sites in the Neh2 domain on NRF2. The two sites are referred to as the DLG binding motif (latch domain, uM affinity) and the ETGE binding motif (hinge domain, nM affinity). The Keap1 protein consists of an N-terminal region (NTR), a broad complex, tramtrack, and brick a′ brac domain (BTB), an intervening region (IVR), a double glycine repeat domain (DGR or Kelch), and a C-terminal region. The DLG and ETGE motifs of NRF2's Neh2 domain bind to the Kelch domain of Keap1 at different affinities. In the Keap1 Kelch fluorescence polarization (FP) assay, a TAMRA-labeled 16 mer peptide (AFFAQLQLDEETGEFL) containing the ETGE motif of NRF2 and the Kelch domain (321-609) of Keap1 is used. The assay determines if a compound interferes with the binding between Keap1 […] and the TAMRA-labeled peptide. Binding of TAMRA-labeled NRF2 peptide to Keap1 (321-609) results in a high FP signal. If a compound interferes with the binding between the peptide and the protein, it will cause the assay signal to decrease. Thus, assay signal is inversely proportional to binding inhibition.
# 100 nl of 100× compound dose response curves (serial 3-fold dilutions) in DMSO are stamped using an Echo liquid handling system (Labcyte) into 384-well low volume black assay plates (Greiner, #784076), with DMSO in columns 6 and 18. The top concentration of compound is located in columns 1 and 13. Keap1 (321-609) is diluted to 40 nM (2×) in 1× assay buffer (50 mM Tris, pH 8.0, 100 mM NaCl, 5 mM MgCl2, 1 mM DTT, 2 mM CHAPS, and 0.005% BSA) and 5 ul is added using a Multidrop Combi (Thermo Electron Corporation) equipped with a metal tip dispenser to all wells of the compound plate, except column 18. Column 18 receives only 5 ul of assay buffer. Immediately, 5 uL of 16 nM (2×) of Tamra labeled peptide (AFFAQLQLDEETGEFL, 21st Century Biochemicals) is added to all wells of the plate. The plates are spun at 500 rpm for 1 min, incubated for 1 hr at room temperature, and read on an Analyst GT (Molecular Devices) equipped with excitation (530/25 nm) and emission (580/10 nm) filters designed for Tamra probes. A 561 nm dichroic mirror is also used in the Analyst. The final assay concentrations of Keap1 (321-609) and Tamra labeled peptide are 20 nM and 8 nM, respectively. Fluorescence measurements, represented as mP, are used in the transformation of the data. Compound activity is calculated based on percent inhibition, normalized against controls in the assay (Control 1 contains the Tamra peptide and Keap1 (321-609) together (0% response) and control 2 contains the Tamra peptide alone (100% response)). Data analysis is handled using the software package Abase XE (Surrey, United Kingdom. The % inhibition values are calculated by the equation: 100−(100*((compound response-average control 2)/(average control 1−average control 2))). For calculation of pIC50s, Abase XE uses a four parameter equation.
# NRF2/Keap1 = target: T2, NRF2/Keap1 (Homo sapiens, UniProt Q14145); test: NRF2-Keap1 TR-FRET Assay (full length NRF2 and full length Keap1); type: binding; conditions: 25 nM Keap1-FlagHis, 50 nM biotin-NRF2 added
# T2 construct: full length NRF2 protein and full length Keap1 protein (Keap1 exists a dimer) are used
# T2 sequence (Q14145 whole entry): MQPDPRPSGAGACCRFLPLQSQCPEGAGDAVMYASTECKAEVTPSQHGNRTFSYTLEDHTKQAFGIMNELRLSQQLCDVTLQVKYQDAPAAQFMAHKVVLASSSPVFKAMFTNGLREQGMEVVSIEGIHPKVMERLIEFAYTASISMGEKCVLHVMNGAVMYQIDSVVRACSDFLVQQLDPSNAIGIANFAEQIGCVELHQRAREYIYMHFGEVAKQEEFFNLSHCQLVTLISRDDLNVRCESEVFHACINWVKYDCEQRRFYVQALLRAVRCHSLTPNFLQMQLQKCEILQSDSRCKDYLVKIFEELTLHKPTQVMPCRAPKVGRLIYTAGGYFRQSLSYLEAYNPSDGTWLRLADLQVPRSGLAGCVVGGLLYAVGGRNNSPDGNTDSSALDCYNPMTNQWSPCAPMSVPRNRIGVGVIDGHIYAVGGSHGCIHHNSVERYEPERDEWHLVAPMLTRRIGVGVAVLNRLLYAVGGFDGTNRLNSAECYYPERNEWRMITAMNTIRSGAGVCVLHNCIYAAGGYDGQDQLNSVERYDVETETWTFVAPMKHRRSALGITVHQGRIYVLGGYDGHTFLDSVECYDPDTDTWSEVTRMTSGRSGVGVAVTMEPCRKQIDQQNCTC
# From the text: In the NRF2-Keap1 TR-FRET (time-resolved fluorescence resonance energy transfer) assay, full length NRF2 protein and full length Keap1 protein (Keap1 exists a dimer) are used. The assay detects the ability of compound to displace the binding of FlagHis-tagged Keap1 with biotinylated, Avi-tagged NRF2 protein. Biotin-NRF2 binds to streptavidin-europium (a component of the detection mix) and Keap1-FlagHis is recognized by anti-Flag APC (allophycocyanin) antibody (also a component of the detection mix). If binding occurs between the two proteins, there will be an energy transfer from the Eu+3 (donor) at 615 nm to the APC (acceptor) at 665 nm. A potential Keap1 inhibitor will cause a reduction in the TR-FRET signal by interfering with the binding of Keap1 to NRF2.
# One hundred nanoliters of 100× compound dose response curves (serial 3-fold dilutions) in DMSO are stamped using an Echo liquid handling system (Labcyte) into 384-well, low volume, black assay plates (Greiner, #784076), with DMSO in columns 6 and 18. The top concentration of compound is located in columns 1 and 13. All reagents are diluted in assay buffer (50 mM Tris, pH 8.0, 5 mM MgCl2, 100 mM NaCl, 0.005% BSA, 1 mM DTT, and 2 mM CHAPS). The BSA, DTT, and CHAPS are added to the assay buffer on the day of assay. Using a Multidrop Combi (Thermo Electron Corporation) equipped with a metal tip dispenser, 5 ul of 25 nM Keap1-FlagHis protein is added to all wells of the compound plate, with the exception of the wells in column 18. Wells in column 18 receive 5 ul of assay buffer instead. Plates are centrifuged at 500 rpm for 1 minute, covered with a plate lid, and incubated at 37° C. for 2.25 hours. Plates are then removed from the incubator and allowed to cool to RT for 15 minutes. Five microliters of 50 nM biotin-NRF2 protein is then added to all wells of the plates and the plates are spun at 500 rpm for 1 minute, followed by incubating at 4° C. for 1.25 hours. The plates are then allowed to warm to RT for 15 minutes, followed by the addition of 10 ul of detection mix (1 nM Streptavidin Eu+ W1024 and 5 ug/ml mouse anti-DYKDDDDK IgG conjugated to SureLight APC antibody; both from Columbia Biosciences) to all wells. Plates are spun at 500 rpm for 1 minute, incubated for 1 hour at RT, and read on an Envision plate reader using a 320 nm excitation filter and 615 nm and 665 nm emission filters. Compound response (% inhibition) and potency (pIC50) are calculated based on the ratio of the two emissions (665 nm/615 nm) and then the transformed data is normalized against controls in the assay (control 1=1% DMSO in the presence of NRF2 and Keap1 protein and control 2=1% DMSO in the absence of protein). Data analysis is handled using the software package Abase XE (Surrey, United Kingdom). The % inhibition values are calculated from the ratio (transformed) data by the equation: 100−(100*(compound response-average control 2)/(average control 1−average control 2)).
# For calculation of pIC50s, Abase XE uses a four parameter equation.
Structure (SMILES),EC50 [1] [nM],IC50 (Keap1/NRF2) [nM],IC50 (NRF2/Keap1) [nM]
"O=C(O)c1cnn(-c2cccc(C3CCCC(C(=O)N4CCCC45CCCCC5)C3)c2)c1C1CC1 (racemic) [Example 7, 1-[3-(3-{1-Azaspiro[4.5]decane-1-carbonyl}cyclohexyl)phenyl]-5-cyclopropyl-1H-pyrazole-4-carboxylic Acid]",1000 to 10000,100 to 1000,1000 to 10000
"O=C(O)c1cnn(-c2cccc(C3CCCC(C(=O)N4CCCCCC4)C3)c2)c1C1CC1 (stereo not drawn) [Example 20, 1-(3-(3-(Azepane-1-carbonyl)cyclohexyl)phenyl)-5-cyclopropyl-1H-pyrazole-4-carboxylic Acid]",1000 to 10000,100 to 1000,1000 to 10000
"CN(C)C(=O)[C@H]1CCC[C@@H](c2cccc(-n3ncc(C(=O)O)c3C3CC3)c2)C1 (racemic) [Example 1, 5-Cyclopropyl-1-{3-[3-(dimethylcarbamoyl)cyclohexyl]phenyl}-1H-pyrazole-4-carboxylic Acid]",1000 to 10000,100 to 1000,1000 to 10000
"CC1CCc2cnn([C@@H]3CCC[C@H](c4cccc(-n5ncc(C(=O)O)c5C5CC5)c4)C3)c21 (mixture of isomers) [Example 14, 5-Cyclopropyl-1-{3-[(cis)-3-(6-methyl-5,6-dihydro-4H-cyclopentapyrazol-1-yl)-cyclohexyl]-phenyl}-1H-pyrazole-4-carboxylic Acid]",1000 to 10000,100 to 1000,1000 to 10000
"O=C(O)c1cnn(-c2cccc([C@@H]3CCC[C@H](C(=O)N4CCCC5(CCCC5)C4)C3)c2)c1C1CC1 (racemic) [Example 4, 1-[3-(3-{7-Azaspiro[4.5]decane-7-carbonyl}cyclohexyl)phenyl]-5-cyclopropyl-1H-pyrazole-4-carboxylic Acid]",1000 to 10000,100 to 1000,1000 to 10000
"O=C(O)c1cnn(-c2cccc(C3CCC(n4ncc5c4CCCC5=O)C3)c2)c1C1CC1 (stereo not drawn) [Example 15, 5-Cyclopropyl-1-{3-[3-(4-oxo-4,5,6,7-tetrahydro-indazol-1-yl)-cyclopentyl]-phenyl}-1H-pyrazole-4-carboxylic Acid]",1000 to 10000,100 to 1000,1000 to 10000
"O=C(O)c1cnn(-c2cccc(C3CCCC(n4ncc5c4CCCCC5)C3)c2)c1C1CC1 (racemic) [Example 9, 1-[3-(3-{1H,4H,5H,6H,7H,8H-cyclohepta[c]pyrazol-1-yl}cyclohexyl)phenyl]-5-cyclopropyl-1H-pyrazole-4-carboxylic Acid]",1000 to 10000,100 to 1000,1000 to 10000
"CC1(C)CCCN1C(=O)C1CCCC(c2cccc(-n3ncc(C(=O)O)c3C3CC3)c2)C1 (racemic) [Example 6, 5-cyclopropyl-1-{3-[3-(2,2-dimethylpyrrolidine-1-carbonyl)cyclohexyl]phenyl}-1H-pyrazole-4-carboxylic Acid]",1000 to 10000,100 to 1000,1000 to 10000
